Like-named read-outs stand apart in the source and are kept apart here. Peptide text beside a SMILES is read from it. * marks the point of attachment. code b = biotin-ε-aminohexanoyl, O=C(CCCC[C@@H]1SC[C@@H]2NC(=O)N[C@@H]21)NCCCCCC(=O)*; Biotin = O=C1N[C@H]2[C@H](CS[C@H]2CCCCC(=O)*)N1; Ahx = NCCCCCC(=O)O
Tests used:
HSV-1 KOS mutant hrR3 [1] = test: LacZ+ virus (hrR3) entry assay with pre-adsorbed virus (entry block); format: cell-based
Method: LacZ^+ virus (hrR3) entry assay: Confluent Vero cell cultures in 96-well microtiter plates were switched to Hepes-buffered serum-free DMEM, cooled on ice to 4° C. for 30 min, and infected with hrR3 for 1 hour at 4° C. in 40 μL of medium. Unattached virus was removed by rinsing with ice-cold medium. Treatments with antiviral peptide SEQ ID NO:1, referred to as EB, or a control peptide which comprised the RRKK tetra-peptide (SEQ ID NO:16) attached to a scrambled version of the membrane transiting peptide RRKKLAALPLVLAAPLAVLA (SEQ ID NO:17) (referred to as EBX), or mock-treatments with peptide-free medium were carried out in serum-free DMEM as indicated. Virus entry was initiated by transferring cultures to 37° C. To inactivate any remaining extracellular virus, cultures were rinsed with PBS and exposed to low pH citrate buffer (40 mM citric acid, 10 mM KCl, 135 mM NaCl, pH 3.0, according to Highlander et al., J. Virol. 61:3356 (1987), for 1 min at 23° C. The citrate was rinsed off with PBS and cultures were maintained in serum-supplemented DMEM until they were fixed with 0.5% gluteraldehyde in 5×PBS for 30 min at 23° C., stained for β-galactosidase activity for 1 hour or overnight at 23° C. with X-gal (Fisher Biotech; BP1615-1) in 1×PBS containing […], 1.3 mM K4Fe(CN)6, and 1.3 mM K3Fe(CN)6, and scored for the presence of blue […] cells.
In these studies, the hrR3 virus was pre-adsorbed to cells for 1 hour at 4° C. before ice cold 25 μM EB or EBX were added in serum-free DMEM. After an additional 1 hour at 4° C., cultures were shifted to 37° C. to initiate virus entry. At 15 min intervals following the temperature shift, any virus remaining outside the cells was inactivated by washing the cultures with low pH citrate buffer. Cultures were then rinsed and returned to peptide-free serum-supplemented DMEM until they were fixed and stained for β-galactosidase 8 hours after the temperature shift.
(§1) Two assays were used to assess the ability of the TAT peptides to inhibit infection of Vero cells with the hrR3 virus. In both assays, the virus was preadsorbed to cells at 4° C. and entry was initiated in the presence of peptide by shifting the cultures to a permissive temperature (30-37° C.). One hour later, the peptide was rinsed off. The entry blocking activity was measured in half of the cultures, in which any extracellular virus remaining after the peptide treatment was inactivated with low pH citrate buffer. The rest of the cultures were exposed to PBS instead of citrate buffer and used to measure virus inactivation. Virus inactivation depended on persistent effects of the peptide lasting for a period of eight hours. At the end of that period, all cultures were fixed and infected cells were detected by staining with X-gal.
(§2) Virus (m.o.i.=0.025) was preadsorbed to Vero cells for 1 h at 4° C. before cultures were exposed to TAT-C (FIG. 15A), bTAT-9X (FIG. 15B), or n50,51TAT-C (FIGS. 15C, 15D) for 1 h at 33 (FIGS. 15A, 15B), 31 (FIG. 15C), or 37° C. (FIG. 15D). […] Inhibition of entry was measured in the citrate-treated cultures, in which any remaining external virus was inactivated immediately following exposure to peptide (●). Persistent virus inactivation lasting, at least in part, for the 8 h period following exposure to peptide, was measured in the PBS-treated cultures (◯). The IC50s measured in these experiments are included in Table 5.

HSV-1 KOS mutant hrR3 [2] = details: read-out: post-entry effects IC50; peptide added after citrate treatment, 8 h
HSV-1 KOS mutant hrR3 [3] = test: Inactivation of pre-adsorbed virus (virus inactivation); format: cell-based; details: 33° C.; read-out: Virus Inactivation IC50 (pre-adsorbed virus)
Method: as §1, §2

hrR3 = test: Virucidal assay; format: cell-based, HSV-1
Method: […] The treated virus was diluted 200-fold with serum-supplemented DMEM and assayed for infectivity approximately 1 hour later in microtiter wells seeded with Vero cells (3.5×10^4 cells/well) 1 d earlier. Forty or 100 microliter volumes of diluted virus were adsorbed for 1 or 2 h at 37° C. and lacZ^+ cells were scored 8 hours later. In some experiments, aliquots of diluted virus were first dialyzed (Spectra/Por; MWCO 12-14,000) overnight at 4° C. against a 60-fold excess volume of Hepes-buffered serum-supplemented DMEM or forced by syringe through 0.22 μm membranes (Millex-GV; Millipore) before the remaining infectious virus was assayed.

in vitro = details: African green monkey
[4] = system: Vero, HeLa, CV-1PD, TM-1, DP-9, CEMx174, NIKS, W12E cells; test: MTS assay, eight cell lines; details: eight cell lines
[5] = 33° C., read-out: Entry Block IC50

Compound | IC50 (HSV-1 KOS mutant hrR3 [1]; [5]) [µM] | IC50 (HSV-1 KOS mutant hrR3 [3]) [µM] | IC50 (in vitro) [µM] | other results
N=C(N)NCCC[C@H](NC(=O)CNC(=O)CCCCCNC(=O)CCCC[C@@H]1SC[C@@H]2NC(=O)N[C@@H]21)C(=O)N[C@@H](CCCCN)C(=O)N[C@@H](CCCCN)C(=O)N[C@@H](CCCNC(=N)N)C(=O)N[C@@H](CCCNC(=N)N)C(=O)N[C@@H](CCC(N)=O)C(=O)N[C@@H](CCCNC(=N)N)C(=O)N[C@@H](CCCNC(=N)N)C(=O)N[C@@H](CCCNC(=N)N)C(=O)N[C@@H](CS)C(N)=O [bTAT-C, b-GRKKRRQRRRC-amide] | 5.8 | 27 |  | IC50 (HSV-1 KOS mutant hrR3 [2]): 175 µM
b - KLALKLALKALKAALKLA-amide ({code b}-KLALKLALKALKAALKLA-NH2; SMILES CC(C)C[C@H](NC(=O)[C@H](C)NC(=O)[C@H](CCCCN)NC(=O)[C@H](CC(C)C)NC(=O)[C@H](C)NC(=O)[C@H](CC(C)C)NC(=O)[C@H](CCCCN)NC(=O)[C@H](CC(C)C)NC(=O)[C@H](C)NC(=O)[C@H](CC(C)C)NC(=O)[C@H](CCCCN)NC(=O)CCCCCNC(=O)CCCC[C@@H]1SC[C@@H]2NC(=O)N[C@@H]21)C(=O)N[C@@H](CCCCN)C(=O)N[C@@H](C)C(=O)N[C@@H](C)C(=O)N[C@@H](CC(C)C)C(=O)N[C@@H](CCCCN)C(=O)N[C@@H](CC(C)C)C(=O)N[C@@H](C)C(N)=O) [bKLAd11,12] |  |  |  | IC50 (HSV-1 KOS mutant hrR3 [1]; read-out: Entry Blocking Activity IC50): 23 µM; IC50 (hrR3; 4° C., read-out: Virucidal Activity 4° C. IC50): 300 µM; IC50 (hrR3; 37° C., read-out: Virucidal Activity 37° C. IC50): 61 µM
CC(C)C[C@H](NC(=O)[C@H](C)NC(=O)[C@H](CC(C)C)NC(=O)[C@H](CC(C)C)NC(=O)[C@@H](NC(=O)[C@H](C)NC(=O)[C@@H]1CCCN1C(=O)[C@H](CC(C)C)NC(=O)[C@H](CC(C)C)NC(=O)[C@H](C)NC(=O)[C@@H](NC(=O)[C@H](C)NC(=O)[C@H](C)NC(=O)[C@H](CCCCN)NC(=O)[C@H](CCCCN)NC(=O)[C@H](CCCNC(=N)N)NC(=O)[C@H](CCCNC(=N)N)NC(=O)CCCCCNC(=O)CCCC[C@@H]1SC[C@@H]2NC(=O)N[C@@H]21)C(C)C)C(C)C)C(=O)N[C@@H](CC(C)C)C(=O)N[C@@H](C)C(=O)N1CCC[C@H]1C(=O)O [bEB] ({Biotin-Ahx}-RRKKAAVALLPAVLLALLAP-OH) |  |  | 100 | 
CC(C)C[C@H](NC(=O)CCCCCNC(=O)CCCC[C@@H]1SC[C@@H]2NC(=O)N[C@@H]21)C(=O)N[C@@H](C)C(=O)N[C@H](C(=O)N[C@@H](CC(C)C)C(=O)N[C@@H](C)C(=O)N1CCC[C@H]1C(=O)NCC(=O)N[C@@H](CCCNC(=N)N)C(=O)N[C@@H](CCCCN)C(=O)N[C@@H](CCCCN)C(=O)N[C@@H](CCCNC(=N)N)C(=O)N[C@@H](CCCNC(=N)N)C(=O)N[C@@H](CCC(N)=O)C(=O)N[C@@H](CCCNC(=N)N)C(=O)N[C@@H](CCCNC(=N)N)C(=O)N[C@@H](CCCNC(=N)N)C(=O)N[C@@H](CS)C(N)=O)C(C)C [b6TAT-C, b-LAVLAPGRKKRRQRRRC-amide] ({Biotin-Ahx}-LAVLAPGRKKRRQRRRC-NH2) | 5.3 | 25 |  | IC50 (HSV-1 KOS mutant hrR3 [2]): 190 µM
CC[C@H](C)[C@H](NC(=O)[C@H](CCCCN)NC(=O)[C@@H](NC(=O)[C@H](CCC(N)=O)NC(=O)[C@H](CCCNC(=N)N)NC(=O)CCCCCNC(=O)CCCC[C@@H]1SC[C@@H]2NC(=O)N[C@@H]21)[C@@H](C)CC)C(=O)N[C@@H](Cc1ccccc1)C(=O)N[C@@H](Cc1ccccc1)C(=O)N1CCC[C@H]1C(=O)N[C@@H](CC(N)=O)C(=O)N[C@@H](CCCNC(=N)N)C(=O)N[C@@H](CCCNC(=N)N)C(=O)N[C@@H](CCSC)C(=O)N[C@@H](CCCCN)C(=O)N[C@@H](Cc1ccccc1)C(=O)N[C@@H](CCCCN)C(=O)N[C@@H](CCCCN)C(N)=O [bHOMFF, b - RQIKI F FPNRRMK F KK-amide] ({Biotin-Ahx}-RQIKIFFPNRRMKFKK-NH2) |  |  | > 100 | cytotoxicity to cells (MTS), overall [4]: generally not cytotoxic
CC(C)C[C@H](NC(=O)[C@@H](NC(=O)[C@H](C)NC(=O)[C@H](CC(C)C)NC(=O)[C@@H]1CCCN1C(=O)[C@H](C)NC(=O)[C@H](C)NC(=O)[C@H](CC(C)C)NC(=O)[C@@H](NC(=O)[C@H](CC(C)C)NC(=O)[C@@H]1CCCN1C(=O)[C@H](CC(C)C)NC(=O)[C@H](C)NC(=O)[C@H](C)NC(=O)[C@H](CC(C)C)NC(=O)[C@@H]1CCCN1C(=O)[C@H](CCCNC(=N)N)NC(=O)[C@H](CCCNC(=N)N)NC(=O)[C@H](CCCNC(=N)N)NC(=O)[C@H](CCC(N)=O)NC(=O)[C@H](CCCNC(=N)N)NC(=O)[C@H](CCCNC(=N)N)NC(=O)[C@H](CCCCN)NC(=O)[C@H](CCCCN)NC(=O)[C@H](CCCNC(=N)N)NC(=O)CN)C(C)C)C(C)C)C(=O)N[C@@H](C)C(=O)O [TAT-17] (H-GRKKRRQRRRPLAALPLVLAAPLAVLA-OH) | 2.4 | 8.3 | ~200 | 
CC(C)C[C@H](NC(=O)CCCCCNC(=O)CCCC[C@@H]1SC[C@@H]2NC(=O)N[C@@H]21)C(=O)N[C@@H](C)C(=O)N[C@@H](C)C(=O)N[C@@H](CC(C)C)C(=O)N1CCC[C@H]1C(=O)N[C@@H](CC(C)C)C(=O)N[C@H](C(=O)N[C@@H](CC(C)C)C(=O)N[C@@H](C)C(=O)N[C@@H](C)C(=O)N1CCC[C@H]1C(=O)N[C@@H](CC(C)C)C(=O)N[C@@H](C)C(=O)N[C@H](C(=O)N[C@@H](CC(C)C)C(=O)N[C@@H](C)C(=O)N1CCC[C@H]1C(=O)NCC(=O)N[C@@H](CCCNC(=N)N)C(=O)N[C@@H](CCCCN)C(=O)N[C@@H](CCCCN)C(=O)N[C@@H](CCCNC(=N)N)C(=O)N[C@@H](CCCNC(=N)N)C(=O)N[C@@H](CCC(N)=O)C(=O)N[C@@H](CCCNC(=N)N)C(=O)N[C@@H](CCCNC(=N)N)C(=O)N[C@@H](CCCNC(=N)N)C(=O)N[C@@H](CS)C(N)=O)C(C)C)C(C)C [b17TAT-C] ({Biotin-Ahx}-LAALPLVLAAPLAVLAPGRKKRRQRRRC-NH2) | 5.4 | 9.4 | ~200 | 
CC(C)C[C@H](NC(=O)[C@@H](NC(=O)[C@H](C)NC(=O)[C@H](CC(C)C)NC(=O)[C@@H]1CCCN1C(=O)[C@H](C)NC(=O)[C@H](C)NC(=O)[C@H](CC(C)C)NC(=O)[C@@H](NC(=O)[C@H](CC(C)C)NC(=O)[C@@H]1CCCN1C(=O)[C@H](CC(C)C)NC(=O)[C@H](C)NC(=O)[C@H](C)NC(=O)[C@H](CC(C)C)NC(=O)[C@@H]1CCCN1C(=O)[C@H](CCCNC(=N)N)NC(=O)[C@H](CCCNC(=N)N)NC(=O)[C@H](CCCNC(=N)N)NC(=O)[C@H](CCC(N)=O)NC(=O)[C@H](CCCNC(=N)N)NC(=O)[C@H](CCCNC(=N)N)NC(=O)[C@H](CCCCN)NC(=O)[C@H](CCCCN)NC(=O)[C@H](CCCNC(=N)N)NC(=O)CNC(=O)[C@H](Cc1ccc(O)cc1)NC(=O)CCCCCNC(=O)CCCC[C@@H]1SC[C@@H]2NC(=O)N[C@@H]21)C(C)C)C(C)C)C(=O)N[C@@H](C)C(=O)O [bTAT-17] ({Biotin-Ahx}-YGRKKRRQRRRPLAALPLVLAAPLAVLA-OH) | 2.4 | 6.6 | ~200 | 
